The source of these data is patent publication US10272090B1, “Liquid pharmaceutical composition comprising pemetrexed” (SYNTHON B.V., priority 2014, dated 2019).

A short description of the data set: Solubility / precipitation of pemetrexed diacid in aqueous solution depending on pH. The data set is classed as physicochemical. The note with it: aqueous solutions with neutral or acidic pH.

As to `Nc1nc2[nH]cc(CCc3ccc(C(=O)N[C@@H](CCC(=O)O)C(=O)O)cc3)c2c(=O)[nH]1` [pemetrexed diacid, N-[4-[2-(2-amino-4,7-dihydro-4-oxo-1H-pyrrolo[2,3-d]pyrimidin-5-yl)ethyl]benzoyl]-L-glutamic acid], the solubility entry was “very low”.
